Assay results published in ChEMBL document CHEMBL3886225, “Morpholinylquinazolines” (2015).

Target: DNA-dependent protein kinase catalytic subunit (Homo sapiens, UniProt P78527)
Assay: Biochemical Assay: The kinase assay was carried out in streptavidin-coated […] microtitre FlashPlates®. To this end, 1.5 μg of the DNA-PK/protein complex and 100 ng of biotinylated substrate, such as, for example, PESQEAFADLWKK biotin-NH2 (biotin-DNA-PK peptide), in a total volume of 36.5 μl (34.25 mM HEPES/KOH, 7.85 mM Tris-HCl, 68.5 mM KCl, 5 μM ATP, 6.85 mM MgCl2, 0.5 mM EDTA, 0.14 mM EGTA, 0.69 mM DTT, pH 7.4), were incubated at room temperature for 90 min with 500 ng of DNA from calf thymus, 0.1 μCi of 33P-ATP and 1.8% of DMSO per well with or without the test compound. The reaction was stopped using 50 μl/well of 200 mM EDTA. After incubation for a further 30 min at room temperature, the liquid was removed. Each well was washed three times with 100 μl of 0.9% sodium chloride solution. A non-specific reaction (blank value) was determined using 10 μM of a proprietary kinase inhibitor.

Sequence of DNA-dependent protein kinase catalytic subunit (P78527 whole entry): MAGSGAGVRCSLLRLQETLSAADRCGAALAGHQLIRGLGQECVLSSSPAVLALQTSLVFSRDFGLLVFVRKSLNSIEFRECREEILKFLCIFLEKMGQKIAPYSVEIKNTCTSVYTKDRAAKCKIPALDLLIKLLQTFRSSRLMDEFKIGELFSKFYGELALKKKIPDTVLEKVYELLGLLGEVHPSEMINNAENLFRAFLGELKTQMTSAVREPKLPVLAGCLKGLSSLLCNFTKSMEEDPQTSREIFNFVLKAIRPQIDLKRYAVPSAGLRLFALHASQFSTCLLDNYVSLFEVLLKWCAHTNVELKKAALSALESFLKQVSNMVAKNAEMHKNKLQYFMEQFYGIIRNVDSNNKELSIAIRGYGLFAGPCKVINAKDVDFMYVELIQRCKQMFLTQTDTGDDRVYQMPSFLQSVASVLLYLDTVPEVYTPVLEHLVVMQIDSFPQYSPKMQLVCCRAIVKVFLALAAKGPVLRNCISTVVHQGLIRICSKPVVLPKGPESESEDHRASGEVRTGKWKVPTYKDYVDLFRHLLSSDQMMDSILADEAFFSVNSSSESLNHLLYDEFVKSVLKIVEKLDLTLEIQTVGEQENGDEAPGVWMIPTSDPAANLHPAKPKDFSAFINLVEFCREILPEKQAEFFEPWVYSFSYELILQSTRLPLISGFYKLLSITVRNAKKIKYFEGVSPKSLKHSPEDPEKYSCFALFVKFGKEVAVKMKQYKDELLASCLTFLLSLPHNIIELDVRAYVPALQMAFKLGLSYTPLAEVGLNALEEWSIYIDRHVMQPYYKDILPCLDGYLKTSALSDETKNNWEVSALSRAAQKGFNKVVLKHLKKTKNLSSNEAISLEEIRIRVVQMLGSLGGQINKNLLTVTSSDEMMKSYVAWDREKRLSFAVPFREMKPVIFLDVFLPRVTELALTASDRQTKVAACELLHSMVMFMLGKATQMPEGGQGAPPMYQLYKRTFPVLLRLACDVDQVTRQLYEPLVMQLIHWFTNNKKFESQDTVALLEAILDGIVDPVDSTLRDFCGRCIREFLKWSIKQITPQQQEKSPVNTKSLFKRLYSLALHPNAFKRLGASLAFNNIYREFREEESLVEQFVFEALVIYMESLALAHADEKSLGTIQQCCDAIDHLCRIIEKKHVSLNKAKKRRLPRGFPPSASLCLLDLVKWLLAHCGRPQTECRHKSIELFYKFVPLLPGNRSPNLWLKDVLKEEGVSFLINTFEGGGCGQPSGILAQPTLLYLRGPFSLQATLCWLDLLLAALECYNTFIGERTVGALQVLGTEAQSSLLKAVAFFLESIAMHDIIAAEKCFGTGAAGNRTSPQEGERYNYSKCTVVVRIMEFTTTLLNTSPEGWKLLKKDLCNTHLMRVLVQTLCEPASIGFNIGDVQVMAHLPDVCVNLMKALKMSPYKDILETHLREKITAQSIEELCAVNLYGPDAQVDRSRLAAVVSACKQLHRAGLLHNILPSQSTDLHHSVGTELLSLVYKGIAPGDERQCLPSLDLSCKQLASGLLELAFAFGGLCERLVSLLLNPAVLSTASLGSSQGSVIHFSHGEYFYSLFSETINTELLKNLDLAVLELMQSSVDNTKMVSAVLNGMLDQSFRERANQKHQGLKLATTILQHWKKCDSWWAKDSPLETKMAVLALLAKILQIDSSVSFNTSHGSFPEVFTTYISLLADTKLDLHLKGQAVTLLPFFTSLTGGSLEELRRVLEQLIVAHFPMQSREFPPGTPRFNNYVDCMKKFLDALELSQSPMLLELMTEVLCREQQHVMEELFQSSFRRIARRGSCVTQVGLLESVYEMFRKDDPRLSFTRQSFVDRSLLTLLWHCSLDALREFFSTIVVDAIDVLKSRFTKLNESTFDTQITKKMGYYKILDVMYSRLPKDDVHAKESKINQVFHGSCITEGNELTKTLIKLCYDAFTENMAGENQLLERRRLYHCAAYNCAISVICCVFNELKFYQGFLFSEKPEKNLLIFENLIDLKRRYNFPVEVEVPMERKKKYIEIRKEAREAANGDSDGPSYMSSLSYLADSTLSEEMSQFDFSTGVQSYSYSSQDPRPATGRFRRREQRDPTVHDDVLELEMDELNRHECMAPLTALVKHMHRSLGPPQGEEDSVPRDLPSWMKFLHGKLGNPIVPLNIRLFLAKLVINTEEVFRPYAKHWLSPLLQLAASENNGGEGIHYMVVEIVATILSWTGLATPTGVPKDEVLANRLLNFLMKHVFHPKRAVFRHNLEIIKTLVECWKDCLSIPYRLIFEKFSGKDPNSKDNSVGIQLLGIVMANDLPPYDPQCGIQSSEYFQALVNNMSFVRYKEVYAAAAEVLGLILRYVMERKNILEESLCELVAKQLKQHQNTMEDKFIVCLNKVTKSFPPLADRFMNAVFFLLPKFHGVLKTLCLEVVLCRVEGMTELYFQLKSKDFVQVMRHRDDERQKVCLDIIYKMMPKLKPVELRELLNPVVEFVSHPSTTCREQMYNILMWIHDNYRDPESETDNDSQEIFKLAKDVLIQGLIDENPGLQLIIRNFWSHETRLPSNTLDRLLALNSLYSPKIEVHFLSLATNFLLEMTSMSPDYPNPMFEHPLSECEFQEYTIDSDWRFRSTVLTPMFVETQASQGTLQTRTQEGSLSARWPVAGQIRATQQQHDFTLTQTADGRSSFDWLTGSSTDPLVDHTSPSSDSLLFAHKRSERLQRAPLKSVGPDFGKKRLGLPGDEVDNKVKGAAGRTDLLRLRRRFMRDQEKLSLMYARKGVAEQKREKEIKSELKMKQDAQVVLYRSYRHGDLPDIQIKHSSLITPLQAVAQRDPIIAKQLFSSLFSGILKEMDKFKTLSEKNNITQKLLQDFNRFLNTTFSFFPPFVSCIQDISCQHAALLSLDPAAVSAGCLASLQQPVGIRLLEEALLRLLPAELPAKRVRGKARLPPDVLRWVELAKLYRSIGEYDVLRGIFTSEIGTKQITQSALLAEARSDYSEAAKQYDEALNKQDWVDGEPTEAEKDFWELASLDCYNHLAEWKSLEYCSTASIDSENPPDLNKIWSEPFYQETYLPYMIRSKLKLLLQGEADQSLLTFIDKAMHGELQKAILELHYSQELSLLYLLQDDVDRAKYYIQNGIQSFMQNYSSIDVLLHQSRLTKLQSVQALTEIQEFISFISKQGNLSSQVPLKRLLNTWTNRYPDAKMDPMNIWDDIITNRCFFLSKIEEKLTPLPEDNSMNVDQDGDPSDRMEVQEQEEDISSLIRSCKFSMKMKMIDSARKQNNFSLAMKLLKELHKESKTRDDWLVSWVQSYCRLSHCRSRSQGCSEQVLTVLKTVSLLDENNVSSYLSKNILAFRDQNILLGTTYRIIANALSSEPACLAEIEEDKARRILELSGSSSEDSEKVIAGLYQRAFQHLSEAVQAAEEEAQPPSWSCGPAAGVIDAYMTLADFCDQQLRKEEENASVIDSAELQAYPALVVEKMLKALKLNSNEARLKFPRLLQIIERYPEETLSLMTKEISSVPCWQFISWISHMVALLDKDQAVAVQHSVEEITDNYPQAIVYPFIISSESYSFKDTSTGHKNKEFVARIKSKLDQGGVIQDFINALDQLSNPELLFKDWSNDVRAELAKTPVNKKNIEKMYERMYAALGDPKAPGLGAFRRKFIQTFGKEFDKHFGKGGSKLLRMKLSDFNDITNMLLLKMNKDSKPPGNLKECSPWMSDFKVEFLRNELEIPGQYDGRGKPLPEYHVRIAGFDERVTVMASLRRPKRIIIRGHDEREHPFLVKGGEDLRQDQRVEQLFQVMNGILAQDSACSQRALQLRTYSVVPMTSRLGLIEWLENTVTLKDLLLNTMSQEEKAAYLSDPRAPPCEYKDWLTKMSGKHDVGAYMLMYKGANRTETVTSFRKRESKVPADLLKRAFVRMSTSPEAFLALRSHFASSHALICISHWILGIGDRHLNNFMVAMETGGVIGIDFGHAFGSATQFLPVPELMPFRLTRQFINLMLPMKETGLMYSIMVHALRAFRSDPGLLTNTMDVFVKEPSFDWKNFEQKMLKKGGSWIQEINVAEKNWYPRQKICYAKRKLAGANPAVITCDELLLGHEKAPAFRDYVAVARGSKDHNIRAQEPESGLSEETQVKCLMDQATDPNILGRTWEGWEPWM

- IC50: < 100 nM
SMILES: O=S(=O)(NC1CCCN(c2nc(Cl)nc3cc(N4CCOCC4)ccc23)C1)c1cccs1 (stereo unspecified)
